Assay results taken from patent US9073974B2, “RGD-containing cyclic peptides” (The Regents of the University of California, priority 2009, dated 2015).
Numbered stars: 1 amine (or outer) side, 2 acyl side, 3 side chain; on linkers, the order of the positions; unused ones are H or OH. Bridge positions count the residues as written; N and C are the ends. Square brackets hold non-standard residues; d marks the D form. Peptide text beside a SMILES is read from it. * marks the point of attachment. Benzoyl(4-NO2) = O=C(c1ccc([N+](=O)[O-])cc1)*; Pro(5R-Ph) = O=C(O)[C@@H]1CC[C@H](c2ccccc2)N1; Benzoyl(3,5-(OH)2) = O=C(c1cc(O)cc(O)c1)*; Benzoyl(4-Ph) = O=C(c1ccc(-c2ccccc2)cc1)*; NH(CH2CH2O)2CH2CH2NH2 = NCCOCCOCCN*; dBta = N[C@H](Cc1csc2ccccc12)C(=O)O; Cyclohexylacetyl = O=C(CC1CCCCC1)*; X2 = O=C(C1(N[*:1])CCC(O)CC1)[*:2]; dCit = NC(=O)NCCC[C@@H](N)C(=O)O; hArg = N=C(N)NCCCC[C@H](N)C(=O)O; NMeD = CN[C@@H](CC(=O)O)C(=O)O; dPen = CC(C)(S)[C@@H](N)C(=O)O; dTle = CC(C)(C)[C@@H](N)C(=O)O; Agp = N=C(N)NC[C@H](N)C(=O)O; Suc = O=C(CCC(=O)[*:2])[*:1]; Pentanoyl = CCCCC(=O)*; βAla = NCCC(=O)O; Sar = CNCC(=O)O

Biological target: αvβ3 integrin (Homo sapiens, UniProt P05106+P06756)
Test: Inhibition of biotinylated LXW7 binding to αvβ3-K562 cells (flow cytometry)
Parameters: expressed in transfected cells; host or cells: K562 (gift of Dr. Yoshikazu Takada, UC Davis)
Conditions: LXW9-92: inhibiting the binding of biotinylated LXW7 against αvβ3-K562 cells
Protocol: The apparent IC50 were calculated using Graph Prism software (≦www.graphpad.com≧).
The samples were analyzed with Coulter XL-MCL flow cytometry. The histogram and mean fluorescence intensity (MFI) were determined. The apparent Kd, IC50 were calculated using Graph Prism software (≦www.graphpad.com≧).

αvβ3 integrin, sequence (P06756 31-889 limits assumed): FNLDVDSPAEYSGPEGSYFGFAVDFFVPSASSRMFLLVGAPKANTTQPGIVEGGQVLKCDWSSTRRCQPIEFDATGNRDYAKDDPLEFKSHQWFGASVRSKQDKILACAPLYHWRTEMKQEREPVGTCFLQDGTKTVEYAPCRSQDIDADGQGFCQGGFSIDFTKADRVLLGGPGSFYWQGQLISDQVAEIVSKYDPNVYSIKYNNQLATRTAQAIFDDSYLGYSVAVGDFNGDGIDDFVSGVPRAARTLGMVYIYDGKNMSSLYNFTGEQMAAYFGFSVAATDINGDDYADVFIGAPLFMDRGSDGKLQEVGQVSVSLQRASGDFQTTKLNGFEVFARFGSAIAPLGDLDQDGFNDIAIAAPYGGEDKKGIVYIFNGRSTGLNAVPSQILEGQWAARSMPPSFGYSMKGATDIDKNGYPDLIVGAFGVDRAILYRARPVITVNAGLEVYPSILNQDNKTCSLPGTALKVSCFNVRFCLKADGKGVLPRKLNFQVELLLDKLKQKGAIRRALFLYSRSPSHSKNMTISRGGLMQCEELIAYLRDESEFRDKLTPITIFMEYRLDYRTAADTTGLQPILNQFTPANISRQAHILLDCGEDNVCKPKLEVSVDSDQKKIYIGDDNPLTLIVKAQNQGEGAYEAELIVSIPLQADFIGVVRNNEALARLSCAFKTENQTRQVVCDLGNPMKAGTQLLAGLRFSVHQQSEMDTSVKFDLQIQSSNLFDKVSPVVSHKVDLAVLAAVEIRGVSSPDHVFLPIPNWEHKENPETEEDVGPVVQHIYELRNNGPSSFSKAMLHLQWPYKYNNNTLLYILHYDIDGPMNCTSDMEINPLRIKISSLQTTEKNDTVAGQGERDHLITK
αvβ3 integrin, sequence (P06756 891-1048 partner limits assumed): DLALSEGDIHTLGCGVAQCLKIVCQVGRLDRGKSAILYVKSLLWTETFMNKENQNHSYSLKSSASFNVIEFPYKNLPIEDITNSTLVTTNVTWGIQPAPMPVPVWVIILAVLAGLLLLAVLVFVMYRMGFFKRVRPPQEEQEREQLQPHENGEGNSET
αvβ3 integrin, sequence (P05106 27-788): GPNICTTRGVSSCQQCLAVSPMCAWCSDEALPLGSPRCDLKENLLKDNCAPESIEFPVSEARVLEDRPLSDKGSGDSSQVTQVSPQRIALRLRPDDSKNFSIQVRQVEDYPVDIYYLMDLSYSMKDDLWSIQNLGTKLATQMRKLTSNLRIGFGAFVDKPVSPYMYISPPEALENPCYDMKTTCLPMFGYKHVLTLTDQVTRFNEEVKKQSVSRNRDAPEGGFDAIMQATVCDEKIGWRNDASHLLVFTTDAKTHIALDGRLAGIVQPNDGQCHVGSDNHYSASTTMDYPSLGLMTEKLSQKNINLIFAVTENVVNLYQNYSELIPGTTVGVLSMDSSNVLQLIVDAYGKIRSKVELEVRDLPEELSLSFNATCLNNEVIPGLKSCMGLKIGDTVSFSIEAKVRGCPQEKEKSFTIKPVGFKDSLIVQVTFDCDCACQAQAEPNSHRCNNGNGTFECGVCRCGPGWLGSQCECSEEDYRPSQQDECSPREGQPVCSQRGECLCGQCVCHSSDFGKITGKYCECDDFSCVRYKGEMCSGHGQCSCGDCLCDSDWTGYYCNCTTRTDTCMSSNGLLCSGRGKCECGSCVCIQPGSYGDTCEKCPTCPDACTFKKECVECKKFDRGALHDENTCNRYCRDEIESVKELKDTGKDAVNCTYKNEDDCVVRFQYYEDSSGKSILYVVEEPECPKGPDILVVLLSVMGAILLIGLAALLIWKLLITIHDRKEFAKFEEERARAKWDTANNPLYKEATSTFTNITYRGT

| SMILES | IC50 (class symbols) | IC50 (LXW7 as internal reference) |
| --- | --- | --- |
| CC(C)[C@H]1NC(=O)[C@@H](CC(=O)O)NC(=O)[C@H](CC(=O)O)NC(=O)CNC(=O)[C@H](CCCNC(=N)N)NC(=O)CNC(=O)[C@H](NC(=O)CCN)CSSC[C@H](C(N)=O)NC1=O [LXW56, 3-amino propanoyl-cGRGDdvc] (H-[βAla][dC]GRGD[dD][dV][dC]-NH2; disulfide 2-9) | < 1 µM | – |
| N=C(N)NCCC[C@@H]1NC(=O)CNC(=O)[C@@H](N)CSSC[C@@H](C(N)=O)NC(=O)[C@@H](Cc2cscn2)NC(=O)[C@@H](CC(=O)O)NC(=O)[C@H](CC(=O)O)NC(=O)CNC1=O [LXW39, CGRGDd-DTha-C] | > 10 µM | – |
| N=C(N)NCCC[C@@H]1NC(=O)CNC(=O)[C@H](N)CSSC[C@H](C(N)=O)NC(=O)[C@@H](Cc2cccc3ccccc23)NC(=O)[C@@H](CC(=O)O)NC(=O)[C@H](CC(=O)O)NC(=O)CNC1=O [LXW64, cGRGDd-DNal1-c] | < 1 µM | – |
| CC(C)[C@H]1NC(=O)[C@@H](CC(=O)O)NC(=O)[C@H](CC(=O)O)NC(=O)CNC(=O)[C@H](CCCCNC(=N)N)NC(=O)CNC(=O)[C@H](N)CSSC[C@H](C(N)=O)NC1=O [LXW51, cG-HoArg-GDdvc] (H-[dC]G[hArg]GD[dD][dV][dC]-NH2; disulfide 1-8) | – | > 20 µM |
| CC[C@H]1NC(=O)[C@@H](CC(=O)O)NC(=O)[C@H](CC(=O)O)NC(=O)CNC(=O)[C@H](CCCNC(=N)N)NC(=O)CNC(=O)[C@H](N)CSSC[C@H](C(N)=O)NC1=O [LXW25, cGRGDd-DAbu-c] | < 1 µM | – |
| N=C(N)NCCC[C@@H]1NC(=O)CNC(=O)[C@H](N)CSSC[C@H](C(N)=O)NC(=O)[C@@H]2CC[C@H](c3ccccc3)N2C(=O)[C@@H](CCCNC(N)=O)NC(=O)[C@H](CC(=O)O)NC(=O)CNC1=O [LXW70, cGRGD-DCit-Ppca-c] (H-[dC]GRGD[dCit][Pro(5R-Ph)][dC]-NH2; disulfide 1-8) | > 10 µM | – |
| CC(C)[C@H]1NC(=O)[C@@H](CC(=O)O)NC(=O)[C@H](CC(=O)O)NC(=O)CNC(=O)[C@H](CCCNC(=N)N)NC(=O)CNC(=O)[C@H](NC(=O)CCC(=O)NCCOCCOCCN)CSSC[C@H](C(N)=O)NC1=O [LXW57, (Ebes)-cGRGDdvc] ({NH(CH2CH2O)2CH2CH2NH2-Suc}-[dC]GRGD[dD][dV][dC]-NH2; disulfide 1-8) | < 1 µM | – |
| CC(C)[C@H]1NC(=O)[C@@H](CC(=O)O)NC(=O)[C@H](CC(=O)O)N(C)C(=O)CNC(=O)[C@H](CCCNC(=N)N)NC(=O)CNC(=O)[C@H](N)CSSC[C@H](C(N)=O)NC1=O [LXW55, cGRG-(NMe)Asp-dvc] (H-[dC]GRG[NMeD][dD][dV][dC]-NH2; disulfide 1-8) | – | > 20 µM |
| CC(C)[C@H]1NC(=O)[C@@H](CC(=O)O)NC(=O)[C@H](CC(=O)O)NC(=O)CNC(=O)[C@H](CCCNC(=N)N)NC(=O)CNC(=O)[C@H](NC(=O)c2ccc([N+](=O)[O-])cc2)CSSC[C@H](C(N)=O)NC1=O [LXW82, 4-nitrobezoyl-cGRGDdvc] ({Benzoyl(4-NO2)}-[dC]GRGD[dD][dV][dC]-NH2; disulfide 1-8) | 1 to 10 µM | – |
| CC(C)[C@H]1NC(=O)[C@@H](CC(=O)O)NC(=O)[C@H](CC(=O)O)NC(=O)CNC(=O)[C@H](CCCNC(=N)N)NC(=O)CNC(=O)[C@H](NC(=O)c2ccc(-c3ccccc3)cc2)CSSC[C@H](C(N)=O)NC1=O [LXW84, biphenyl-4-carbonyl-cGRGDdvc] ({Benzoyl(4-Ph)}-[dC]GRGD[dD][dV][dC]-NH2; disulfide 1-8) | < 1 µM | – |
| CC(C)[C@@]1(C)NC(=O)[C@@H](CC(=O)O)NC(=O)[C@H](CC(=O)O)NC(=O)CNC(=O)[C@H](CCCNC(=N)N)NC(=O)CNC(=O)[C@H](N)CSSC[C@H](C(N)=O)NC1=O [LXW23, cGRGDd-D(CaMe)Val-c] | > 10 µM | – |
| CN1CC(=O)N[C@@H](CCCNC(=N)N)C(=O)NCC(=O)N[C@@H](CC(=O)O)C(=O)NC2(CCC(O)CC2)C(=O)N[C@H](C(C)(C)C)C(=O)N[C@@H](C(N)=O)CSSC[C@@H](N)C1=O (stereo partly shown) [LXW33, c-Sar-RGD-Ahch-DBug-c] (H-[dC][Sar]RGD[X2][dTle][dC]-NH2; disulfide 1-8) | – | > 20 µM |
| CC(C)[C@H]1NC(=O)[C@@H](CC(=O)O)NC(=O)[C@H](CC(=O)O)NC(=O)CNC(=O)[C@H](CCCNC(=N)N)NC(=O)CNC(=O)[C@H](NC(=O)CC2CCCCC2)CSSC[C@H](C(N)=O)NC1=O [LXW78, cyclohexyl acetyl-cGRGDdvc] (Cyclohexylacetyl-[dC]GRGD[dD][dV][dC]-NH2; disulfide 1-8) | 1 to 10 µM | – |
| CCCCC(=O)N[C@@H]1CSSC[C@H](C(N)=O)NC(=O)[C@@H](C(C)C)NC(=O)[C@@H](CC(=O)O)NC(=O)[C@H](CC(=O)O)NC(=O)CNC(=O)[C@H](CCCNC(=N)N)NC(=O)CNC1=O [LXW77, valeryl-cGRGDdvc] (Pentanoyl-[dC]GRGD[dD][dV][dC]-NH2; disulfide 1-8) | 1 to 10 µM | – |
| C#CC[C@H]1NC(=O)[C@@H](CC(=O)O)NC(=O)[C@H](CC(=O)O)NC(=O)CNC(=O)[C@H](CCCNC(=N)N)NC(=O)CN(C)C(=O)[C@H](N)CSSC[C@@H](C(N)=O)NC1=O [LXW37, c-Sar-RGDd-DPra-C] | > 10 µM | – |
| CC[C@@H](C)[C@H]1NC(=O)C2(CCC(O)CC2)NC(=O)[C@H](CC(=O)O)NC(=O)CNC(=O)[C@H](CCCNC(=N)N)NC(=O)CN(C)C(=O)[C@H](N)CSSC[C@@H](C(N)=O)NC1=O (stereo partly shown) [LXW42, c-Sar-RGD-Ahch-iC] (H-[dC][Sar]RGD[X2][dI]C-NH2; disulfide 1-8) | – | > 20 µM |

More lines, now with the values ahead:

| IC50 (class symbols) | IC50 (LXW7 as internal reference) | SMILES |
| --- | --- | --- |
| – | > 20 µM | CN1CC(=O)N[C@@H](CCCNC(=N)N)C(=O)NCC(=O)N[C@@H](CC(=O)O)C(=O)N[C@H](CC(=O)O)C(=O)NC2(CCOCC2)C(=O)N[C@H](C(N)=O)CSSC[C@H](N)C1=O [LXW36, C-Sar-RGDd-Actp-C] |
| > 10 µM | – | C#CC[C@H]1NC(=O)[C@@H](CC(=O)O)NC(=O)[C@H](CC(=O)O)NC(=O)CNC(=O)[C@H](CCCNC(=N)N)NC(=O)CN(C)C(=O)[C@@H](N)CSSC[C@@H](C(N)=O)NC1=O [LXW35, C-Sar-RGDd-DPra-C] |
| < 1 µM | – | CC(C)(C)[C@H]1NC(=O)[C@@H](CC(=O)O)NC(=O)[C@H](CC(=O)O)NC(=O)CNC(=O)[C@H](CCCNC(=N)N)NC(=O)CNC(=O)[C@H](N)CSSC[C@H](C(N)=O)NC1=O [LXW18, cGRGDd-DBug-c] |
| 1 to 10 µM | – | CC(C)[C@H]1NC(=O)[C@@H](CC(=O)O)NC(=O)[C@H](CC(=O)O)NC(=O)CNC(=O)[C@H](CCCNC(=N)N)NC(=O)CN(C)C(=O)[C@H](N)CSSC[C@H](C(N)=O)NC1=O [LXW14, c-Sar-RGDdvc] (H-[dC][Sar]RGD[dD][dV][dC]-NH2; disulfide 1-8) |
| – | > 20 µM | CC(C)[C@H]1NC(=O)[C@@H](CC(=O)O)NC(=O)[C@H](CC(=O)O)NC(=O)CNC(=O)[C@H](CNC(=N)N)NC(=O)CNC(=O)[C@H](N)CSSC[C@H](C(N)=O)NC1=O [LXW58, cG-Agp-GDdvc] (H-[dC]G[Agp]GD[dD][dV][dC]-NH2; disulfide 1-8) |
| 1 to 10 µM | – | N=C(N)NCCC[C@@H]1NC(=O)CNC(=O)[C@H](N)CSSC[C@H](C(N)=O)NC(=O)[C@@H](Cc2csc3ccccc23)NC(=O)[C@@H](CCCNC(N)=O)NC(=O)[C@H](CC(=O)O)NC(=O)CNC1=O [LXW73, cGRGD-DCit-DBta-c] (H-[dC]GRGD[dCit][dBta][dC]-NH2; disulfide 1-8) |
| 1 to 10 µM | – | C#CC[C@H]1NC(=O)[C@@H](CC(=O)O)NC(=O)[C@H](CC(=O)O)NC(=O)CNC(=O)[C@H](CCCNC(=N)N)NC(=O)CNC(=O)[C@H](N)CSSC[C@@H](C(N)=O)NC1=O [LXW40, cGRGDd-DPra-C] |
| < 1 µM | – | N=C(N)NCCC[C@@H]1NC(=O)CNC(=O)[C@H](N)CSSC[C@H](C(N)=O)NC(=O)[C@@H](Cc2cccs2)NC(=O)[C@@H](CC(=O)O)NC(=O)[C@H](CC(=O)O)NC(=O)CNC1=O [LXW67, cGRGDd-D2Thi-c] |
| < 1 µM | – | CC(=O)N[C@@H]1CSSC[C@H](C(N)=O)NC(=O)[C@@H](C(C)C)NC(=O)[C@@H](CC(=O)O)NC(=O)[C@H](CC(=O)O)NC(=O)CNC(=O)[C@H](CCCNC(=N)N)NC(=O)CNC1=O [LXW12, Acetyl-cGRGDdvc] (Ac-[dC]GRGD[dD][dV][dC]-NH2; disulfide 1-8) |
| < 1 µM | – | CC(C)[C@H]1NC(=O)[C@@H](CC(=O)O)NC(=O)[C@H](CC(=O)O)NC(=O)CNC(=O)[C@H](CCCNC(=N)N)NC(=O)CNC(=O)[C@H](NC(=O)c2cc(O)cc(O)c2)CSSC[C@H](C(N)=O)NC1=O [LXW83, 3,5-dihydroxy beznoyl-cGRGDdvc] ({Benzoyl(3,5-(OH)2)}-[dC]GRGD[dD][dV][dC]-NH2; disulfide 1-8) |
| – | > 20 µM | CC(C)[C@H]1NC(=O)[C@@H](CC(=O)O)NC(=O)[C@H](CC(=O)O)NC(=O)CNC(=O)[C@H](CCCNC(=N)N)NC(=O)CNC(=O)[C@@H](N)CSSC[C@@H](C(N)=O)NC1=O [LXW11, CGRGDdvC] (H-CGRGD[dD][dV]C-NH2; disulfide 1-8) |
| – | > 20 µM | CC(C)[C@H]1NC(=O)[C@@H](CC(=O)O)NC(=O)[C@H](CC(=O)O)NC(=O)CN(C)C(=O)[C@H](CCCNC(=N)N)NC(=O)CNC(=O)[C@H](N)CSSC[C@H](C(N)=O)NC1=O [LXW54, cGR-Sar-Ddvc] (H-[dC]GR[Sar]D[dD][dV][dC]-NH2; disulfide 1-8) |
| – | > 20 µM | N=C(N)NCCC[C@@H]1NC(=O)CNC(=O)[C@H](N)CSSC[C@@H](C(N)=O)NC(=O)C2(CCOCC2)NC(=O)[C@@H](CC(=O)O)NC(=O)[C@H](CC(=O)O)NC(=O)CNC1=O [LXW41, cGRGDd-Actp-C] |
| 1 to 10 µM | – | CC(C)[C@H]1NC(=O)[C@@H](CC(=O)O)NC(=O)[C@H](CC(=O)O)NC(=O)CNC(=O)[C@H](CCCNC(=N)N)NC(=O)CNC(=O)[C@H](N)C(C)(C)SSC[C@H](C(N)=O)NC1=O [LXW20, DPen-GRGDdvc] (H-[dPen]GRGD[dD][dV][dC]-NH2; disulfide 1-8) |
| < 1 µM | – | CC(C)[C@@H]1C(=O)N[C@@H](C(N)=O)CSSC[C@@H](N)C(=O)NCC(=O)N[C@@H](CCCNC(=N)N)C(=O)NCC(=O)N[C@@H](CC(=O)O)C(=O)N[C@H](CC(=O)O)C(=O)N1C [LXW22, cGRGDd-D(NMe)Val-c] |
